The values below come from patent publication US20120195488A1, “Methods and Compositions Related to Cellular Assays” (University of utah Research Foundation, priority 2009, published 2012).

What all share (format): cell-based
For one experiment, the system named is p-ATM. As to the kind of experiment: Average p-ATM signal per cell in taxol treated MCF7 cells. From the text: (§1) Many cells (typically >1,000) over a very large field of view were imaged. At least two stainings were used simultaneously. An optional third staining, here propidium iodide (PI), was also used as a nuclear locator.
(§2) The cells were imaged in 3 channels which corresponded to the three stainings. The third channel was used for cell profiling. In a first data processing step, cells were automatically identified in the images by their signal and/or shape in one or both of the recorded channels. Alternatively, cells were identified using a nuclear counterstain and then the activator(s) were read. […] From the distributions S1(c) and S2(c), characteristic numbers were derived. For example (at the example of channel 1, same valid for channel 2).
Average signal of all cells: <S1>
(§3) The imaging and analysis procedure were repeated for cells which were fixed at different time points t and under influence of different drug doses dd. For every condition (time point and drug dose), the parameters above were determined.
(§4) Hela, MCF7, as well as primary cells from a patient were cultured for growth in this assay. Cells were obtained and seeded initially at ˜100 cells per well/96 well plate . The cells were grown in DMEM, with 10% Fetal Falf Serum, ultra pure, along with 5% Pen/Strep. The cells after being plated were placed in an incubator at […]. with 5% CO2 and grown for a period of 28 hours to allow for adhesion and division . If the cell took to the plate and were growing normally they were allowed to continue for an additional 24 hours. Cells were then treated with either Taxol, Doxirubicin, or Ionizing Radiation or a combination of all 3. […] Here, the experiment first staining for only one marker using a green label so that the read was unpolluted by any other color that could show cross reactivity with the green (as there is RED, PI staining the nucleus already, which has no cross reactivity), once the data was collected and the data satisfied that the independent signal was reproducible, a double staining was performed by adding the second marker and using a orange dye with a wavelength of 555. […]

In the next experiment the test system is MCF7 cells. The experiment in a line: Total number of cells N in taxol treated MCF7 cells. The following applies: for killing of cells (total number of cells): all drug doses (10 nm to 5 um).
Text: as §1, §2, §3
Hela, MCF7, as well as primary cells from a patient were cultured for growth in this assay. Cells were obtained and seeded initially at ˜100 cells per well/96 well plate . The cells were grown in DMEM, with 10% Fetal Falf Serum, ultra pure, along with 5% Pen/Strep. The cells after being plated were placed in an incubator at […]. with 5% CO2 and grown for a period of 28 hours to allow for adhesion and division . If the cell took to the plate and were growing normally they were allowed to continue for an additional 24 hours. Cells were then treated with either Taxol, Doxirubicin, or Ionizing Radiation or a combination of all 3. All drugs were added in the logarithmic titrations shown in the data at time point zero. The cells were then collected (fixed with −20 degree methanol for 7 minutes, washed with PBS, washed again and stored in PBS until the entire plate of titrations were finished. After collection, the nucleus of each cell was stained using PI (far RED) by adding PI for 15 minutes and then washing 3× the cells with sterile PBS . Once the nuclei had been stained, each well was stained for either phosphor ATM or gamma H2AX or both using primary antibodies at a dilution of 1:1000 in a PBS/Block mix for 1 hour at 37 degrees. The cell were then washed 3× with PBS and then treated with the appropriate secondary . Here, the experiment first staining for only one marker using a green label so that the read was unpolluted by any other color that could show cross reactivity with the green (as there is RED, PI staining the nucleus already, which has no cross reactivity), once the data was collected and the data satisfied that the independent signal was reproducible, a double staining was performed by adding the second marker and using a orange dye with a wavelength of 555. […]

A further experiment deals with γH2AX. The experiment in a line: Fraction of γH2AX positive cells in taxol treated MCF7 cells (multi-well immunofluorescence imaging).
Text: as §1, §2
Fraction of positive cells: F1=N1+/N
as §3
as §4, with “hours.” for “hours. Cells were then treated with either Taxol, Doxirubicin, or Ionizing Radiation or a combination of all 3.”

Turning to `CC(=O)O[C@H]1C(=O)[C@@]2(C)[C@H]([C@H](OC(=O)c3ccccc3)[C@]3(O)C[C@H](OC(=O)[C@H](O)[C@@H](NC(=O)c4ccccc4)c4ccccc4)C(C)=C1C3(C)C)[C@]1(OC(C)=O)CO[C@@H]1C[C@@H]2O` [Taxol], in the experiment on p-ATM (5 uM), the “time at which average p-ATM signal per cell is lowest” value is on record as “approximately 4 hours”. Further, the “p-ATM fluorescent signal, initial elevation (maximum)” value in the experiment on p-ATM (5 um dose) is given as around 2300 a.u. Further, the “p-ATM fluorescent signal, lowest point” value in the experiment on p-ATM (5 um dose, within 4 hours) is given as around 1000 a.u. In addition, the “killing of the entire cell population” value with MCF7 cells (5 um dose) is recorded as “does not kill the entire population”. For the same molecule, the “time point at which cell killing was most effective” value in the experiment on MCF7 cells (all drug doses) is 4 h. For the same molecule, the “killing of cells (total number of cells)” value in the experiment with MCF7 cells is reported as “all treatments were effective in killing cells”; with MCF7 cells (listed as taxol) it was “kill cells in a titration dependent fashion”. In addition, the “time point at which γH2AX fluorescence reaches its lowest point” value with γH2AX (5 um dose) was 12 h. In the experiment on γH2AX (Homo sapiens, all 4 doses 10 nm, 100 nm, 1 um and 5 um, 1 hour pulse, 4 hour post treatment time point, read-out: maximum response, induction rate of γH2AX (fraction of γH2AX positive cells)), the Emax was around 100%. Further, the “effective on a population” value in the experiment with γH2AX (highest dose) is 30%.
